Source: patent US10472341B2, “Bicyclic tetrahydrothiazepine derivatives useful for the treatment of neoplastic and/or infectious diseases” (APEIRON BIOLOGICS AG, priority 2015, dated 2019)

Tested on: CD8 cells & tumor cell lines (K562, M21, CRL2505, MDA-MB-231, A549, TC71, MG63, RD, U138MG)
Assay: Isolated CD8 cells in co-culture with tumor cell lines of diverse origin: IFN-gamma, IL-2, granzyme
Assay type: cell-based, human
Description: Isolated PBMCs, NK cells or CD8 positive cells were plated in Xvivo medium at 1.5*10^5 cells per in 96 well culture plates in the presence of 0.3*10^4 tumor cells where indicated. Cytokine secretion was determined by ELISA, immune cell activation (using Beckman-Coulter Abs CD25-PC5, CD69-PC7), cell viability and numbers by flow cytometry (Beckman-Coulter FC500 or Gallios) using 7-AAD exclusion as criterion for living cells. PBMCs were isolated and incubated with and without compounds, either alone or in co-culture with different tumor cells.

Cl.N[C@H]1CS(=O)(=O)c2cc(F)c(C(=O)NCCCC(F)(F)F)cc2N(Cc2ccc(Cl)cc2)C1=O [Example 70, (3R)-3-amino-5-[(4-chlorophenyl)methyl]-8-fluoro-1,1,4-trioxo-N-(4,4,4-trifluoro-butyl)-2,3,4,5-tetrahydro-1λ^6,5-benzothiazepine-7-carboxamide hydrochloride]
Granzyme (CD8 cells & A549, 0.1 μM): 0.04 ng/mL
IFN-gamma (CD8 cells & A549, 0.1 μM): 0.01 ng/mL
IL-2 (CD8 cells & A549, 0.1 μM): 0.00 ng/mL
Granzyme (CD8 cells & A549, 0.3 μM): 0.09 ng/mL
IFN-gamma (CD8 cells & A549, 0.3 μM): 0.03 ng/mL
IL-2 (CD8 cells & A549, 0.3 μM): 0.15 ng/mL
Granzyme (CD8 cells & A549, 1 μM): 0.10 ng/mL
IFN-gamma (CD8 cells & A549, 1 μM): 0.08 ng/mL
IL-2 (CD8 cells & A549, 1 μM): 0.36 ng/mL
Granzyme (CD8 cells & A549, 3 μM): 0.07 ng/mL
IFN-gamma (CD8 cells & A549, 3 μM): 0.07 ng/mL
IL-2 (CD8 cells & A549, 3 μM): 0.28 ng/mL
Granzyme (CD8 cells & A549, 10 μM): 0.16 ng/mL
IFN-gamma (CD8 cells & A549, 10 μM): 0.16 ng/mL
IL-2 (CD8 cells & A549, 10 μM): 0.59 ng/mL
Granzyme (CD8 cells & K562, 0.1 μM): 1.58 ng/mL
IFN-gamma (CD8 cells & K562, 0.1 μM): 6.97 ng/mL
IL-2 (CD8 cells & K562, 0.1 μM): 3.86 ng/mL
Granzyme (CD8 cells & K562, 0.3 μM): 2.38 ng/mL
IFN-gamma (CD8 cells & K562, 0.3 μM): 7.57 ng/mL
IL-2 (CD8 cells & K562, 0.3 μM): 3.20 ng/mL
Granzyme (CD8 cells & K562, 1 μM): 1.81 ng/mL
IFN-gamma (CD8 cells & K562, 1 μM): 11.23 ng/mL
IL-2 (CD8 cells & K562, 1 μM): 4.08 ng/mL
Granzyme (CD8 cells & K562, 3 μM): 3.91 ng/mL
IFN-gamma (CD8 cells & K562, 3 μM): 8.44 ng/mL
IL-2 (CD8 cells & K562, 3 μM): 3.72 ng/mL
Granzyme (CD8 cells & K562, 10 μM): 4.83 ng/mL
IFN-gamma (CD8 cells & K562, 10 μM): 8.26 ng/mL
IL-2 (CD8 cells & K562, 10 μM): 2.82 ng/mL
Granzyme (CD8 cells & M21, 0.1 μM): 0.24 ng/mL
IFN-gamma (CD8 cells & M21, 0.1 μM): 0.00 ng/mL
IL-2 (CD8 cells & M21, 0.1 μM): 0.39 ng/mL
Granzyme (CD8 cells & M21, 0.3 μM): 0.53 ng/mL
IFN-gamma (CD8 cells & M21, 0.3 μM): 0.02 ng/mL
IL-2 (CD8 cells & M21, 0.3 μM): 0.31 ng/mL
Granzyme (CD8 cells & M21, 1 μM): 0.41 ng/mL
IFN-gamma (CD8 cells & M21, 1 μM): 0.06 ng/mL
IL-2 (CD8 cells & M21, 1 μM): 0.67 ng/mL
Granzyme (CD8 cells & M21, 3 μM): 0.40 ng/mL
IFN-gamma (CD8 cells & M21, 3 μM): 0.03 ng/mL
IL-2 (CD8 cells & M21, 3 μM): 0.64 ng/mL
Granzyme (CD8 cells & M21, 10 μM): 0.50 ng/mL
IFN-gamma (CD8 cells & M21, 10 μM): 0.10 ng/mL
IL-2 (CD8 cells & M21, 10 μM): 0.47 ng/mL
Granzyme (CD8 cells & MDA-MB-231, 0.1 μM): 1.86 ng/mL
IFN-gamma (CD8 cells & MDA-MB-231, 0.1 μM): 10.72 ng/mL
IL-2 (CD8 cells & MDA-MB-231, 0.1 μM): 1.51 ng/mL
Granzyme (CD8 cells & MDA-MB-231, 0.3 μM): 3.40 ng/mL
IFN-gamma (CD8 cells & MDA-MB-231, 0.3 μM): 20.55 ng/mL
IL-2 (CD8 cells & MDA-MB-231, 0.3 μM): 2.14 ng/mL
Granzyme (CD8 cells & MDA-MB-231, 1 μM): 4.23 ng/mL
IFN-gamma (CD8 cells & MDA-MB-231, 1 μM): 22.31 ng/mL
IL-2 (CD8 cells & MDA-MB-231, 1 μM): 2.40 ng/mL
Granzyme (CD8 cells & MDA-MB-231, 3 μM): 5.20 ng/mL
IFN-gamma (CD8 cells & MDA-MB-231, 3 μM): 25.24 ng/mL
IL-2 (CD8 cells & MDA-MB-231, 3 μM): 3.21 ng/mL
Granzyme (CD8 cells & MDA-MB-231, 10 μM): 5.93 ng/mL
IFN-gamma (CD8 cells & MDA-MB-231, 10 μM): 24.22 ng/mL
IL-2 (CD8 cells & MDA-MB-231, 10 μM): 3.63 ng/mL
Granzyme (CD8 cells & MG63, 0.1 μM): 0.23 ng/mL
IFN-gamma (CD8 cells & MG63, 0.1 μM): 0.92 ng/mL
IL-2 (CD8 cells & MG63, 0.1 μM): 0.00 ng/mL
Granzyme (CD8 cells & MG63, 0.3 μM): 0.29 ng/mL
IFN-gamma (CD8 cells & MG63, 0.3 μM): 1.43 ng/mL
IL-2 (CD8 cells & MG63, 0.3 μM): 0.00 ng/mL
Granzyme (CD8 cells & MG63, 1 μM): 0.28 ng/mL
IFN-gamma (CD8 cells & MG63, 1 μM): 1.79 ng/mL
IL-2 (CD8 cells & MG63, 1 μM): 0.00 ng/mL
Granzyme (CD8 cells & MG63, 3 μM): 0.38 ng/mL
IFN-gamma (CD8 cells & MG63, 3 μM): 1.92 ng/mL
IL-2 (CD8 cells & MG63, 3 μM): 0.00 ng/mL
Granzyme (CD8 cells & MG63, 10 μM): 0.44 ng/mL
IFN-gamma (CD8 cells & MG63, 10 μM): 2.36 ng/mL
IL-2 (CD8 cells & MG63, 10 μM): 0.00 ng/mL
Granzyme (CD8 cells & RD, 0.1 μM): 0.09 ng/mL
IFN-gamma (CD8 cells & RD, 0.1 μM): 0.12 ng/mL
IL-2 (CD8 cells & RD, 0.1 μM): 0.00 ng/mL
Granzyme (CD8 cells & RD, 0.3 μM): 0.16 ng/mL
IFN-gamma (CD8 cells & RD, 0.3 μM): 0.45 ng/mL
IL-2 (CD8 cells & RD, 0.3 μM): 0.00 ng/mL
Granzyme (CD8 cells & RD, 1 μM): 0.20 ng/mL
IFN-gamma (CD8 cells & RD, 1 μM): 0.54 ng/mL
IL-2 (CD8 cells & RD, 1 μM): 0.00 ng/mL
Granzyme (CD8 cells & RD, 3 μM): 0.17 ng/mL
IFN-gamma (CD8 cells & RD, 3 μM): 0.65 ng/mL
IL-2 (CD8 cells & RD, 3 μM): 0.00 ng/mL
Granzyme (CD8 cells & RD, 10 μM): 0.30 ng/mL
IFN-gamma (CD8 cells & RD, 10 μM): 1.59 ng/mL
IL-2 (CD8 cells & RD, 10 μM): 0.00 ng/mL
Granzyme (CD8 cells & TC71, 0.1 μM): 0.06 ng/mL
IFN-gamma (CD8 cells & TC71, 0.1 μM): 0.04 ng/mL
IL-2 (CD8 cells & TC71, 0.1 μM): 0.58 ng/mL
Granzyme (CD8 cells & TC71, 0.3 μM): 0.08 ng/mL
IFN-gamma (CD8 cells & TC71, 0.3 μM): 0.11 ng/mL
IL-2 (CD8 cells & TC71, 0.3 μM): 0.97 ng/mL
Granzyme (CD8 cells & TC71, 1 μM): 0.10 ng/mL
IFN-gamma (CD8 cells & TC71, 1 μM): 0.14 ng/mL
IL-2 (CD8 cells & TC71, 1 μM): 1.25 ng/mL
Granzyme (CD8 cells & TC71, 3 μM): 0.10 ng/mL
IFN-gamma (CD8 cells & TC71, 3 μM): 0.27 ng/mL
IL-2 (CD8 cells & TC71, 3 μM): 1.14 ng/mL
Granzyme (CD8 cells & TC71, 10 μM): 0.15 ng/mL
IFN-gamma (CD8 cells & TC71, 10 μM): 0.38 ng/mL
IL-2 (CD8 cells & TC71, 10 μM): 1.57 ng/mL
Granzyme (CD8 cells & U138MG, 0.1 μM): 0.03 ng/mL
IFN-gamma (CD8 cells & U138MG, 0.1 μM): 0.00 ng/mL
IL-2 (CD8 cells & U138MG, 0.1 μM): 0.00 ng/mL
Granzyme (CD8 cells & U138MG, 0.3 μM): 0.04 ng/mL
IFN-gamma (CD8 cells & U138MG, 0.3 μM): 0.01 ng/mL
IL-2 (CD8 cells & U138MG, 0.3 μM): 0.00 ng/mL
Granzyme (CD8 cells & U138MG, 1 μM): 0.01 ng/mL
IFN-gamma (CD8 cells & U138MG, 1 μM): 0.02 ng/mL
IL-2 (CD8 cells & U138MG, 1 μM): 0.04 ng/mL
Granzyme (CD8 cells & U138MG, 3 μM): 0.03 ng/mL
IFN-gamma (CD8 cells & U138MG, 3 μM): 0.02 ng/mL
IL-2 (CD8 cells & U138MG, 3 μM): 0.02 ng/mL
Granzyme (CD8 cells & U138MG, 10 μM): 0.05 ng/mL
IFN-gamma (CD8 cells & U138MG, 10 μM): 0.06 ng/mL
IL-2 (CD8 cells & U138MG, 10 μM): 0.08 ng/mL
Granzyme (CD8 cells only, 0.1 μM): 0.05 ng/mL
IFN-gamma (CD8 cells only, 0.1 μM): 0.00 ng/mL
IL-2 (CD8 cells only, 0.1 μM): 0.00 ng/mL
Granzyme (CD8 cells only, 0.3 μM): 0.04 ng/mL
IFN-gamma (CD8 cells only, 0.3 μM): 0.00 ng/mL
IL-2 (CD8 cells only, 0.3 μM): 0.00 ng/mL
Granzyme (CD8 cells only, 1 μM): 0.05 ng/mL
IFN-gamma (CD8 cells only, 1 μM): 0.00 ng/mL
IL-2 (CD8 cells only, 1 μM): 0.00 ng/mL
Granzyme (CD8 cells only, 3 μM): 0.04 ng/mL
IFN-gamma (CD8 cells only, 3 μM): 0.00 ng/mL
IL-2 (CD8 cells only, 3 μM): 0.00 ng/mL
Granzyme (CD8 cells only, 10 μM): 0.05 ng/mL
IFN-gamma (CD8 cells only, 10 μM): 0.00 ng/mL
IL-2 (CD8 cells only, 10 μM): 0.00 ng/mL
